Results on six molecules are retold here after ChEMBL document CHEMBL1132407, “Combinatorial library of serine and cysteine protease inhibitors that interact with both the S and S' binding sites” (J Med Chem, 1999).

Usually Ki stands for a dissociation constant, usually derived from enzyme kinetics or from competition with a known ligand. Read a low Ki as higher affinity.

The target of assay [1] is T1, Papain (Carica papaya, UniProt P00784).
T1 sequence (P00784 whole entry): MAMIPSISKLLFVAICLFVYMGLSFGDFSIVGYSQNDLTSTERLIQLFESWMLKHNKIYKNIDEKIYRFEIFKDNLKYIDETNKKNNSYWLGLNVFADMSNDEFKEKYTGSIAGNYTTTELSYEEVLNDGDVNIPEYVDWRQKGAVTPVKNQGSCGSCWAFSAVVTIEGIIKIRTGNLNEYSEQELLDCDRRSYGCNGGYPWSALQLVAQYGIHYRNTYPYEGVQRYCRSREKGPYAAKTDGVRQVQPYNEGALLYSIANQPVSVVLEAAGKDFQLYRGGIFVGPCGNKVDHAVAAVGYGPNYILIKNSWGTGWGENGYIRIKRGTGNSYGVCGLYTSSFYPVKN
Briefly: Inhibitory activity against papain.

The target of assay [2] is Plasminogen (Homo sapiens, UniProt P00747). Briefly: Inhibitory activity against plasmin.
For assay [3], the target named is Cathepsin B (Homo sapiens, UniProt P07858). As to the kind of experiment: Inhibitory activity against Cathepsin B.

Chain of Plasminogen (P00747 97-580 limits assumed): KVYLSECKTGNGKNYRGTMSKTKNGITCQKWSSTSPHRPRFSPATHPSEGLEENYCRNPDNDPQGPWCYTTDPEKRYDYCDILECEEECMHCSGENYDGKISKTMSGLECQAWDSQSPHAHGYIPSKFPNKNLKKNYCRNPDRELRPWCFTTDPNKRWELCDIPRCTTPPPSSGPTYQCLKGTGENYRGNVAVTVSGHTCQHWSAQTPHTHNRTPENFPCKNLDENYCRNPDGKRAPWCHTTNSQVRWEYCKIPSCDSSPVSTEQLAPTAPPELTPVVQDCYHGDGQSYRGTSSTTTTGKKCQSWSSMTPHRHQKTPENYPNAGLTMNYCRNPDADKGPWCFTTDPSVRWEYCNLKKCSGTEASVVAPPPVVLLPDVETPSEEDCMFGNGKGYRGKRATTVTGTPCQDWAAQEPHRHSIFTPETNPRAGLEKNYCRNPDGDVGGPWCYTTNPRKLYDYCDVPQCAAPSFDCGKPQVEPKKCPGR
Chain of Plasminogen (P00747 581-810 limits assumed): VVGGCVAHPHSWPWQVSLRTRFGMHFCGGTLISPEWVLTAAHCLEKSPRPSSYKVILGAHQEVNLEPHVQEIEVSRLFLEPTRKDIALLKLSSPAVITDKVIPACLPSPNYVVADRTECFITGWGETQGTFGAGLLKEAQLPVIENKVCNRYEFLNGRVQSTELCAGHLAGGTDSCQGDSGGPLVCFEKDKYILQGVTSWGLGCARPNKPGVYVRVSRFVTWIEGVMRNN

On to `O=C(CC[C@H]1CCC[C@@H](NC(=O)[C@H](Cc2ccccc2)NC(=O)OCc2ccccc2)C1=O)N[C@@H](Cc1c[nH]c2ccccc12)C(=O)O`, for which the Ki in assay [1] worked out at 490 µM; in assay [2], 420 µM.
Take `O=C(CC[C@H]1CCC[C@@H](NC(=O)[C@H](Cc2c[nH]c3ccccc23)NC(=O)OCc2ccccc2)C1=O)N[C@@H](Cc1c[nH]c2ccccc12)C(=O)O` (stereo in doubt; 15A): the Ki worked out at 380 µM in assay [1] and 5 µM in assay [2].
For the molecule `O=C(CC[C@H]1CCC[C@@H](NC(=O)[C@H](Cc2ccccc2)NC(=O)OCc2ccccc2)C1=O)N[C@@H](Cc1ccccc1)C(=O)O`, the Ki in assay [3] is 1100 µM; in assay [1] it was 870 µM; in assay [2], 3000 µM.
`O=C(CC[C@H]1CCC[C@@H](NC(=O)[C@H](Cc2c[nH]c3ccccc23)NC(=O)OCc2ccccc2)C1=O)N[C@@H](Cc1c[nH]c2ccccc12)C(=O)O` (stereo in doubt): the inhibition constant Ki in assay [2] amounted to 10 µM.
The same measure, in the same setting: the figure for `O=C(CC[C@H]1CCC[C@@H](NC(=O)[C@H](Cc2c[nH]c3ccccc23)NC(=O)OCc2ccccc2)C1=O)N[C@@H](Cc1ccccc1)C(=O)O` (stereo in doubt; 16B) is 150 µM.
For the molecule `O=C(CC[C@H]1CCC[C@@H](NC(=O)[C@H](Cc2c[nH]c3ccccc23)NC(=O)OCc2ccccc2)C1=O)N[C@@H](Cc1ccccc1)C(=O)O` (stereo in doubt; 16A), the Ki in assay [1] stood at 250 µM; in assay [2], 100 µM.
